# Measured values from ChEMBL document CHEMBL3885881, “DrugMatrix”.
# Species on record: Rattus norvegicus
# Test: DrugMatrix - Regimen: Daily Repeat
# Assay type: toxicity, organism-based, Sprague-Dawley
# Parameters: regimen Daily Repeat, gender Male, age 6-8 weeks
# Details: in vivo, po, route oral GAVAGE, vehicle .5 % CMC; for ABSOLUTE BASOPHIL / ABSOLUTE EOSINOPHIL / ABSOLUTE LYMPHOCYTE / ABSOLUTE MONOCYTE / ABSOLUTE SEGMENTED NEUTROPHIL / BASOPHIL / EOSINOPHIL / ERYTHROCYTE COUNT / HEMATOCRIT / HEMOGLOBIN / LEUKOCYTE COUNT / LYMPHOCYTE / MEAN CORPUSCULAR HEMOGLOBIN / MEAN CORPUSCULAR HEMOGLOBIN CONCENTRATION / MEAN CORPUSCULAR VOLUME / MONOCYTE / NEUTROPHIL / NUCLEATED RED BLOOD CELLS / PLATELET COUNT: tissue Blood; for ALANINE AMINOTRANSFERASE / ALBUMIN / ALKALINE PHOSPHATASE / ASPARTATE AMINOTRANSFERASE / BLOOD UREA NITROGEN / CARBON DIOXIDE / CHLORIDE / CHOLESTEROL / CREATINE PHOSPHOKINASE / CREATININE / GLUCOSE / LACTATE DEHYDROGENASE / LIPASE / PHOSPHORUS / POTASSIUM / SODIUM / TOTAL BILIRUBIN / TOTAL PROTEIN / URIC ACID: tissue Plasma
# [1] = 30 mg/kg, 72 h, dose level Low, time 3 day
# [2] = 30 mg/kg, 120 h, dose level Low, time 5 day
# [3] = 1200 mg/kg, 72 h, dose level High, time 3 day
# [4] = 1200 mg/kg, 120 h, dose level High, time 5 day
smiles,measurement,setting,value
CN(Cc1cc(Br)cc(Br)c1N)C1CCCCC1 [BROMHEXINE],ABSOLUTE BASOPHIL,[1],0 CELLS/uL
same,ABSOLUTE EOSINOPHIL,[1],52.67 CELLS/uL
same,ABSOLUTE LYMPHOCYTE,[1],13749.67 CELLS/uL
same,ABSOLUTE MONOCYTE,[1],46.33 CELLS/uL
same,ABSOLUTE SEGMENTED NEUTROPHIL,[1],484.67 CELLS/uL
same,BASOPHIL,[1],0%
same,EOSINOPHIL,[1],0.33%
same,ERYTHROCYTE COUNT,[1],5.57 x10E6/uL
same,HEMATOCRIT,[1],34.67%
same,HEMOGLOBIN,[1],13.63 G/DL
same,LEUKOCYTE COUNT,[1],14.33 x10E3/uL
same,LYMPHOCYTE,[1],96%
same,MEAN CORPUSCULAR HEMOGLOBIN,[1],24.5 pg
same,MEAN CORPUSCULAR HEMOGLOBIN CONCENTRATION,[1],39.37 G/DL
same,MEAN CORPUSCULAR VOLUME,[1],62.23 fL
same,MONOCYTE,[1],0.33%
same,NEUTROPHIL,[1],3.33%
same,NUCLEATED RED BLOOD CELLS,[1],0.33 /100WBC
same,PLATELET COUNT,[1],1277.67 x10E3/uL
same,ALANINE AMINOTRANSFERASE,[1],49 u/L
same,ALBUMIN,[1],4.13 G/DL
same,ALKALINE PHOSPHATASE,[1],406.33 u/L
same,ASPARTATE AMINOTRANSFERASE,[1],85 u/L
same,BLOOD UREA NITROGEN,[1],15 mg/dL
same,CARBON DIOXIDE,[1],23 mmol/L
same,CHLORIDE,[1],103.67 MEQ/L
same,CHOLESTEROL,[1],65.67 mg/dL
same,CREATINE PHOSPHOKINASE,[1],317.67 u/L
same,CREATININE,[1],0.18 mg/dL
same,GLUCOSE,[1],158 mg/dL
same,LACTATE DEHYDROGENASE,[1],370.33 u/L
same,LIPASE,[1],9 u/L
same,PHOSPHORUS,[1],12.77 mg/dL
same,POTASSIUM,[1],6.95 MEQ/L
same,SODIUM,[1],145.43 MEQ/L
same,TOTAL BILIRUBIN,[1],0.2 mg/dL
same,TOTAL PROTEIN,[1],5.77 G/DL
same,URIC ACID,[1],1.67 mg/dL
same,ABSOLUTE BASOPHIL,[2],0 CELLS/uL
same,ABSOLUTE EOSINOPHIL,[2],128.67 CELLS/uL
same,ABSOLUTE LYMPHOCYTE,[2],16146.33 CELLS/uL
same,ABSOLUTE MONOCYTE,[2],429 CELLS/uL
same,ABSOLUTE SEGMENTED NEUTROPHIL,[2],1529.33 CELLS/uL
same,BASOPHIL,[2],0%
same,EOSINOPHIL,[2],0.67%
same,ERYTHROCYTE COUNT,[2],5.35 x10E6/uL
same,HEMATOCRIT,[2],33.4%
same,HEMOGLOBIN,[2],13.33 G/DL
same,LEUKOCYTE COUNT,[2],18.23 x10E3/uL
same,LYMPHOCYTE,[2],88.67%
same,MEAN CORPUSCULAR HEMOGLOBIN,[2],24.97 pg
same,MEAN CORPUSCULAR HEMOGLOBIN CONCENTRATION,[2],39.9 G/DL
same,MEAN CORPUSCULAR VOLUME,[2],62.5 fL
same,MONOCYTE,[2],2.33%
same,NEUTROPHIL,[2],8.33%
same,NUCLEATED RED BLOOD CELLS,[2],0 /100WBC
same,PLATELET COUNT,[2],1294.67 x10E3/uL
same,ALANINE AMINOTRANSFERASE,[2],51.33 u/L
same,ALBUMIN,[2],4.27 G/DL
same,ALKALINE PHOSPHATASE,[2],334 u/L
same,ASPARTATE AMINOTRANSFERASE,[2],80.67 u/L
same,BLOOD UREA NITROGEN,[2],15.67 mg/dL
same,CARBON DIOXIDE,[2],24.67 mmol/L
same,CHLORIDE,[2],103.67 MEQ/L
same,CHOLESTEROL,[2],75.33 mg/dL
same,CREATINE PHOSPHOKINASE,[2],235.67 u/L
same,CREATININE,[2],0.15 mg/dL
same,GLUCOSE,[2],144.33 mg/dL
same,LACTATE DEHYDROGENASE,[2],206.67 u/L
same,LIPASE,[2],8 u/L
same,PHOSPHORUS,[2],12.53 mg/dL
same,POTASSIUM,[2],6.56 MEQ/L
same,SODIUM,[2],145.97 MEQ/L
same,TOTAL BILIRUBIN,[2],0.2 mg/dL
same,TOTAL PROTEIN,[2],5.87 G/DL
same,URIC ACID,[2],1.43 mg/dL
same,ABSOLUTE BASOPHIL,[3],0 CELLS/uL
same,ABSOLUTE EOSINOPHIL,[3],0 CELLS/uL
same,ABSOLUTE LYMPHOCYTE,[3],11402.67 CELLS/uL
same,ABSOLUTE MONOCYTE,[3],42 CELLS/uL
same,ABSOLUTE SEGMENTED NEUTROPHIL,[3],922 CELLS/uL
same,BASOPHIL,[3],0%
same,EOSINOPHIL,[3],0%
same,ERYTHROCYTE COUNT,[3],5.83 x10E6/uL
same,HEMATOCRIT,[3],36.2%
same,HEMOGLOBIN,[3],14.53 G/DL
same,LEUKOCYTE COUNT,[3],12.37 x10E3/uL
same,LYMPHOCYTE,[3],92.33%
same,MEAN CORPUSCULAR HEMOGLOBIN,[3],24.93 pg
same,MEAN CORPUSCULAR HEMOGLOBIN CONCENTRATION,[3],40.13 G/DL
same,MEAN CORPUSCULAR VOLUME,[3],62.07 fL
same,MONOCYTE,[3],0.33%
same,NEUTROPHIL,[3],7.33%
same,NUCLEATED RED BLOOD CELLS,[3],0 /100WBC
same,PLATELET COUNT,[3],1700.33 x10E3/uL
same,ALANINE AMINOTRANSFERASE,[3],65.67 u/L
same,ALBUMIN,[3],4.33 G/DL
same,ALKALINE PHOSPHATASE,[3],494.33 u/L
same,ASPARTATE AMINOTRANSFERASE,[3],82.67 u/L
same,BLOOD UREA NITROGEN,[3],12 mg/dL
same,CARBON DIOXIDE,[3],21.33 mmol/L
same,CHLORIDE,[3],102.5 MEQ/L
same,CHOLESTEROL,[3],83.67 mg/dL
same,CREATINE PHOSPHOKINASE,[3],249.33 u/L
same,CREATININE,[3],0.17 mg/dL
same,GLUCOSE,[3],162.67 mg/dL
same,LACTATE DEHYDROGENASE,[3],125.67 u/L
same,LIPASE,[3],13 u/L
same,PHOSPHORUS,[3],12.63 mg/dL
same,POTASSIUM,[3],5.48 MEQ/L
same,SODIUM,[3],143.2 MEQ/L
same,TOTAL BILIRUBIN,[3],0.17 mg/dL
same,TOTAL PROTEIN,[3],5.8 G/DL
same,URIC ACID,[3],1.93 mg/dL
same,ABSOLUTE BASOPHIL,[4],0 CELLS/uL
same,ABSOLUTE EOSINOPHIL,[4],0 CELLS/uL
same,ABSOLUTE LYMPHOCYTE,[4],22503 CELLS/uL
same,ABSOLUTE MONOCYTE,[4],323.33 CELLS/uL
same,ABSOLUTE SEGMENTED NEUTROPHIL,[4],1973.67 CELLS/uL
same,BASOPHIL,[4],0%
same,EOSINOPHIL,[4],0%
same,ERYTHROCYTE COUNT,[4],6.56 x10E6/uL
same,HEMATOCRIT,[4],39.57%
same,HEMOGLOBIN,[4],16.23 G/DL
same,LEUKOCYTE COUNT,[4],24.8 x10E3/uL
same,LYMPHOCYTE,[4],90%
same,MEAN CORPUSCULAR HEMOGLOBIN,[4],24.77 pg
same,MEAN CORPUSCULAR HEMOGLOBIN CONCENTRATION,[4],41.07 G/DL
same,MEAN CORPUSCULAR VOLUME,[4],60.37 fL
same,MONOCYTE,[4],1.33%
same,NEUTROPHIL,[4],8.67%
same,NUCLEATED RED BLOOD CELLS,[4],0 /100WBC
same,PLATELET COUNT,[4],1311.67 x10E3/uL
same,ALANINE AMINOTRANSFERASE,[4],66.67 u/L
same,ALBUMIN,[4],4.5 G/DL
same,ALKALINE PHOSPHATASE,[4],440.33 u/L
same,ASPARTATE AMINOTRANSFERASE,[4],86 u/L
same,BLOOD UREA NITROGEN,[4],19.67 mg/dL
same,CARBON DIOXIDE,[4],25 mmol/L
same,CHLORIDE,[4],102 MEQ/L
same,CHOLESTEROL,[4],90.67 mg/dL
same,CREATINE PHOSPHOKINASE,[4],343.67 u/L
same,CREATININE,[4],0.2 mg/dL
same,GLUCOSE,[4],132 mg/dL
same,LACTATE DEHYDROGENASE,[4],171.33 u/L
same,LIPASE,[4],9.33 u/L
same,PHOSPHORUS,[4],11.03 mg/dL
same,POTASSIUM,[4],6.65 MEQ/L
same,SODIUM,[4],144.3 MEQ/L
same,TOTAL BILIRUBIN,[4],0.17 mg/dL
same,TOTAL PROTEIN,[4],6.17 G/DL
same,URIC ACID,[4],1.33 mg/dL
